# Laboratory results: patent publication US20220071999A1, “DESIGN AND DISCOVERY OF BD OXIDASE INHIBITORS FOR THE TREATMENT OF MYCOBACTERIAL DISEASES” (UNIVERSITY OF NOTRE DAME DU LAC, priority 2018, published 2022)
# Read-outs that look alike come from different tables or passages of the source.
# Tests used:
# [1] = system: Mycobacterium abscessus clinical specimens; assay: checkerboard assay (MIC) against Mycobacterium abscessus clinical specimens; type: cell-based; conditions: for MIC: Mycobacteroides abscessus; for Activity (effect on MICs in combination): ND-11992 with ND-11598
# Method: ND-11992 (bd oxidase inhibitor) and ND-11598 (cyt-bc1:aa3 inhibitor) were evaluated against various Mycobacterium abscessus clinical specimens in a checkerboard assay. Additive effects on MICs were observed when both drugs were used in combination. MIC values are given in μg/mL.
# [2] = system: Nontuberculous mycobacteria (NTM) clinical isolates of the Mycobacterium avium-intracellulare complex (MAIC); assay: checkerboard assay (MIC) against NTM clinical isolates of the MAIC; type: cell-based; conditions: for MIC: Mycobacterium avium-intracellulare
# Method: ND-11992 (bd oxidase inhibitor) and ND-11598 (cyt-bc1:aa3 inhibitor) were evaluated against various Nontuberculous mycobacteria (NTM) clinical isolates of the Mycobacterium avium-intracellulare complex (MAIC) in a checkerboard assay. Additive and synergistic effects on MICs were observed when both drugs were used in combination. MIC values are given in μg/mL.
# M. tuberculosis = assay: acute murine model of M. tuberculosis infection, alone and in combination; type: in vivo
# Method: ND-11992 (bd oxidase inhibitor) and Q203 (cyt-bc1:aa3 inhibitor) were evaluated in an acute murine model of M. tuberculosis infection alone and in combination. ND-11992 (10 mg/kg PO)+Q203 (5 mg/kg PO) results in bactericidal efficacy with 1.5 log 10 CFU drop in bacteria when dosed orally for 5 days. […] Both compounds were bacteriostatic when dosed alone as single agents.
structure (smiles),measurement,setting,value
Cc1ccn2c(C(=O)NCc3ccc(N4CCCN(c5ccc(C(F)(F)F)cc5)CC4)c(F)c3)c(C)nc2c1 [ND-11598],MIC,"[1]; M. abscessus Clinical Isolate #8, read-out: MIC ND-11598 alone",> 10 µg/mL
same,MIC,"[1]; M. abscessus Clinical Isolate #8, with 5 μg/ml ND 11992, read-out: ND-11598 MIC with 5 μg/ml ND 11992",5 µg/mL
same,MIC,"[1]; M. abscessus Clinical Isolate #38, read-out: MIC ND-11598 alone",> 10 µg/mL
same,MIC,"[1]; M. abscessus Clinical Isolate #38, with 5 μg/ml ND 11992, read-out: ND-11598 MIC with 5 μg/ml ND 11992",5 µg/mL
same,MIC,"[1]; M. abscessus Clinical Isolate #50, read-out: MIC ND-11598 alone",> 10 µg/mL
same,MIC,"[1]; M. abscessus Clinical Isolate #50, with 5 μg/ml ND 11992, read-out: ND-11598 MIC with 5 μg/ml ND 11992",10 µg/mL
same,MIC,"[2]; NTM Clinical Isolate #25, read-out: MIC ND-11598 alone",0.25 µg/mL
same,MIC,"[2]; NTM Clinical Isolate #25, with 0.5 μg/ml ND 11992, read-out: ND-11598 MIC with 0.5 μg/ml ND 11992",0.0156 µg/mL
same,MIC,"[2]; NTM Clinical Isolate #50, read-out: MIC ND-11598 alone",1 µg/mL
same,MIC,"[2]; NTM Clinical Isolate #50, with 0.5 μg/ml ND 11992, read-out: ND-11598 MIC with 0.5 μg/ml ND 11992",0.0156 µg/mL
same,MIC,"[2]; NTM MAIC A5 (serotype 4), read-out: MIC ND-11598 alone",1 µg/mL
same,MIC,"[2]; NTM MAIC A5 (serotype 4), with 0.5 μg/ml ND 11992, read-out: ND-11598 MIC with 0.5 μg/ml ND 11992",0.25 µg/mL
same,MIC,"[2]; NTM MAIC Serovar #4, read-out: MIC ND-11598 alone",> 10 µg/mL
same,MIC,"[2]; NTM MAIC Serovar #4, with 0.5 μg/ml ND 11992, read-out: ND-11598 MIC with 0.5 μg/ml ND 11992",0.25 µg/mL
same,MIC,"[2]; NTM MAIC Serovar #5, read-out: MIC ND-11598 alone",> 10 µg/mL
same,MIC,"[2]; NTM MAIC Serovar #5, with 0.5 μg/ml ND 11992, read-out: ND-11598 MIC with 0.5 μg/ml ND 11992",1 µg/mL
same,MIC,"[2]; NTM MAIC Serovar #6, read-out: MIC ND-11598 alone",0.0156 µg/mL
same,MIC,"[2]; NTM MAIC Serovar #6, with ND-11992 at 1 (column head: 0.5 μg/ml), read-out: ND-11598 MIC with ND 11992",0.0078 µg/mL
same,MIC,"[2]; NTM MAIC Serovar #10, read-out: MIC ND-11598 alone",10 µg/mL
same,MIC,"[2]; NTM MAIC Serovar #10, with 0.5 μg/ml ND 11992, read-out: ND-11598 MIC with 0.5 μg/ml ND 11992",0.25 µg/mL
FC(F)(F)c1ccc(Oc2ccc(Nc3ncnc4ccccc34)cc2)cc1 [ND-11992],CFU drop,M. tuberculosis; 10 mg/kg of ND-11992 alone,no CFU drop
same,type of efficacy (bactericidal/bacteriostatic),"M. tuberculosis; combination ND-11992 10 mg/kg PO + Q203 5 mg/kg PO, 5 days",bactericidal
same,CFU drop in bacteria,"M. tuberculosis; combination ND-11992 10 mg/kg PO + Q203 5 mg/kg PO, dosed orally for 5 days",1.5 log 10 CFU
same,type of efficacy (bactericidal/bacteriostatic),M. tuberculosis; dosed alone as single agents,bacteriostatic
same,MIC,"[1]; M. abscessus Clinical Isolate #8, with 5 μg/ml of ND-11598, read-out: ND-11992 MIC with 5 μg/ml of ND-11598",5 µg/mL
same,MIC,"[1]; M. abscessus Clinical Isolate #38, with 5 μg/ml of ND-11598, read-out: ND-11992 MIC with 5 μg/ml of ND-11598",5 µg/mL
same,MIC,"[1]; M. abscessus Clinical Isolate #50, with 5 μg/ml of ND-11598, read-out: ND-11992 MIC with 5 μg/ml of ND-11598",10 µg/mL
same,Activity (effect on MICs in combination),[1]; M. abscessus Clinical Isolate #8,Additive
same,Activity (effect on MICs in combination),[1]; M. abscessus Clinical Isolate #38,Additive
same,Activity (effect on MICs in combination),[1]; M. abscessus Clinical Isolate #50,Additive
same,MIC,"[2]; NTM Clinical Isolate #25, ND-11598 was only 0.125 μg/ml (column head: 0.5 μg/ml), read-out: ND-11992 MIC with ND-11598",0.0625 µg/mL
same,MIC,"[2]; NTM Clinical Isolate #50, with 0.5 μg/ml of ND-11598, read-out: ND-11992 MIC with 0.5 μg/ml of ND-11598",0.125 µg/mL
same,MIC,"[2]; NTM MAIC A5 (serotype 4), with 0.5 μg/ml of ND-11598, read-out: ND-11992 MIC with 0.5 μg/ml of ND-11598",0.25 µg/mL
same,MIC,"[2]; NTM MAIC Serovar #4, with 0.5 μg/ml of ND-11598, read-out: ND-11992 MIC with 0.5 μg/ml of ND-11598",0.5 µg/mL
same,MIC,"[2]; NTM MAIC Serovar #5, with 0.5 μg/ml of ND-11598, read-out: ND-11992 MIC with 0.5 μg/ml of ND-11598",1 µg/mL
same,MIC,"[2]; NTM MAIC Serovar #10, with 0.5 μg/ml of ND-11598, read-out: ND-11992 MIC with 0.5 μg/ml of ND-11598",0.5 µg/mL
same,Activity (effect on MICs in combination),"[2]; ND-11992 with ND-11598, NTM MAIC Serovar #6",Additive
CCc1nc2ccc(Cl)cn2c1C(=O)NCc1ccc(N2CCC(c3ccc(OC(F)(F)F)cc3)CC2)cc1 [Q203],type of efficacy (bactericidal/bacteriostatic),M. tuberculosis; dosed alone as single agents,bacteriostatic
